# According to US8324250B2 (Hoffmann-La Roche Inc., priority 2009, dated 2012):
# Target: T1, recombinant human NK3 receptor (Homo sapiens, UniProt P29371)
# T1 construct: expressed in transfected cells; host or cells: HEK293 cells (transient expression), membranes
# T1 sequence (P29371 1-465): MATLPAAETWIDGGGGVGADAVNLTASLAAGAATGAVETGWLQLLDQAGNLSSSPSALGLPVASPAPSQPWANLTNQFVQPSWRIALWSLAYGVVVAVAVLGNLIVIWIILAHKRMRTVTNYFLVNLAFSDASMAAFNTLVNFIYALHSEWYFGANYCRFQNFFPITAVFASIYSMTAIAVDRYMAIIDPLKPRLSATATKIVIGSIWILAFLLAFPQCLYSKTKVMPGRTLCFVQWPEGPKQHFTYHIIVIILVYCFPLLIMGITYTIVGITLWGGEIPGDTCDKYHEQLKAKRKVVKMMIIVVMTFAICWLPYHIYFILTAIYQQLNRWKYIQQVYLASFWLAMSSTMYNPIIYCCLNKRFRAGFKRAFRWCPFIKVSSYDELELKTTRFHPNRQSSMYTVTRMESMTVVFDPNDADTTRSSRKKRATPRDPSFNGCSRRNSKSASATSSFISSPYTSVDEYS
# Assay: [3H]SR142801 competition binding assay
# Conditions: membranes from HEK293 cells transiently expressing recombinant human NK3 receptor; [3H]SR142801 radioligand; 75 min at RT; Ki by Cheng-Prussoff; read-out: Data Ki (hNK-3 receptor affinity)
# In short: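 Membranes from HEK293 cells transiently expressing the receptor, 5 μg protein/well, in 50 mM Tris-HCl pH 7.4 with 4 mM MnCl2, 1 μM phosphoramidon, 0.1% BSA; nonspecific binding defined with 10 μM SB222200. Filtration and scintillation counting; IC50 from Hill fit, Ki by Cheng-Prussoff using saturation-derived KD, duplicates.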
row,Structure (SMILES),Ki
1,"Cc1nc(-c2ccc(C(=O)N3CCC(C(=O)N[C@@H](C)C4CCCCC4)(c4ccccc4)CC3)cc2)no1 [Example 75, 1-[4-(5-Methyl-[1,2,4]oxa-diazol-3-yl)-benzoyl]-4-phenyl-piperidine-4-carboxylic acid ((S)-1-cyclohexyl-ethyl)-amide]",3.9 nM
2,"C[C@H](NC(=O)C1(c2ccccc2)CCN(C(=O)c2ccc(-c3nnco3)cc2)CC1)c1ccccc1 [Example 35, 1-(4-[l,3,4]Oxadiazol-2-yl-benzoyl)-4-phenyl-piperidine-4-carboxylic acid ((S)-1-phenyl-ethyl)-amide]",68.7 nM
3,"CC(C)C(NC(=O)C1(c2ccc(F)cc2)CCN(C(=O)N2CCN(c3ccc(F)cc3)CC2)CC1)c1ccc(F)cc1 (stereo not drawn) [Example 175, 4-(4-Fluoro-phenyl)-1-[4-(4-fluoro-phenyl)-piperazine-1-carbonyl]-piperidine-4-carboxylic acid [1-(4-fluoro-phenyl)-2-methyl-propyl]-amide]",48 nM
4,"Cc1ccc(NNC(=O)C2(c3ccc(F)cc3)CCN(C(=O)c3ccc(-c4ccc(F)cc4)cc3)CC2)cc1 [Example 187, 1-(4′-Fluoro-biphenyl-4-carbonyl)-4-(4-fluoro-phenyl)-piperidine-4-carboxylic acid N′-p-tolyl-hydrazide]",76.7 nM
5,"O=C(c1ccc(-c2ccc(F)cc2)cc1)N1CCC(C(=O)NCc2ccc(F)cc2)(c2ccc(F)cc2)CC1 [Example 136, 1-(4′-Fluoro-biphenyl-4-carbonyl)-4-(4-fluoro-phenyl)-piperidine-4-carboxylic acid 4-fluoro-benzylamide]",54.9 nM
6,"C[C@H](NC(=O)C1(c2ccccc2)CCN(C(=O)N2CCN(c3ccc(Cl)cn3)CC2)CC1)c1ccccc1 [Example 206, 1-[4-(5-Chloro-pyridin-2-yl)-piperazine-1-carbonyl]-4-phenyl-piperidine-4-carboxylic acid ((S)-1-phenyl-ethyl)-amide]",79.8 nM
7,"Cc1nnc(C)n1C1CCN(C(=O)N2CCC(C(=O)N[C@@H](C)c3ccccc3)(c3ccccc3)CC2)CC1 [Example 220, 1-[4-(3,5-Dimethyl-[1,2,4]triazol-4-yl)-piperidine-1-carbonyl]-4-phenyl-piperidine-4-carboxylic acid ((S)-1-phenyl-ethyl)-amide]",63.9 nM
8,"Cc1noc(-c2ccc(C(=O)N3CCC(C(=O)N[C@@H](c4ccc(F)cc4)C(F)(F)F)(c4ccc(F)cc4)CC3)cc2)n1 (racemic) [Example 202, 4-(4-Fluoro-phenyl)-1-[4-(3-methyl-[1,2,4]oxadiazol-5-yl)-benzoyl]-piperidine-4-carboxylic acid [(SR)-2,2,2-trifluoro-1-(4-fluoro-phenyl)-ethyl]-amide]",6.8 nM
9,"CC(C)c1nc(-c2ccc(C(=O)N3CCC(C(=O)N[C@@H](C)c4ccccc4)(c4ccccc4)CC3)cc2)no1 [Example 66, 1-[4-(5-Isopropyl-[1,2,4]oxa-diazol-3-yl)-benzoyl]-4-phenyl-piperidine-4-carboxylic acid ((S)-1-phenyl-ethyl)-amide]",59 nM
10,"Cc1noc(-c2ccc(C(=O)N3CCC(C(=O)NC(c4ccc(F)cc4)C(C)C)(c4ccc(F)cc4)CC3)cc2)n1 (stereo not drawn) [Example 158, 4-(4-Fluoro-phenyl)-1-[4-(3-methyl-[1,2,4]oxadiazol-5-yl)-benzoyl]-piperidine-4-carboxylic acid [1-(4-fluoro-phenyl)-2-methyl-propyl]-amide]",11 nM
11,"C[C@H](NC(=O)C1(c2ccccc2)CCN(C(=O)c2ccc(N3CCOCC3)cc2)CC1)c1ccccc1 [Example 8, 1-(4-Morpholin-4-yl-benzoyl)-4-phenyl-piperidine-4-carboxylic acid ((S)-l-phenyl-ethyl)-amide]",84.4 nM
12,"C[C@H](NC(=O)C1(c2ccccc2)CCN(C(=O)c2ccc(N3CCCCC3)nc2)CC1)c1ccccc1 [Example 12, 4-Phenyl-1-(3,4,5,6-tetrahydro-2H-[l,2′]bipyridinyl-5′-carbonyl)-piperidine-4-carboxylic acid ((S)-1-phenyl-ethyl)-amide]",50.4 nM
13,"C[C@H](NC(=O)C1(c2ccc(F)cc2)CCN(C(=O)N2CCN(c3ccc(F)cc3)CC2)CC1)c1cccc(F)c1 [Example 178, 4-(4-Fluoro-phenyl)-1-[4-(4-fluoro-phenyl)-piperazine-1-carbonyl]-piperidine-4-carboxylic acid [(S)-1-(3-fluoro-phenyl)-ethyl]-amide]",19 nM
14,"C[C@H](NC(=O)C1(c2ccccc2)CCN(C(=O)N2CCC(N3CCS(=O)(=O)CC3)CC2)CC1)c1ccc(F)cc1 [Example 223, 1-[4-(1,1-Dioxo-1λ6-thiomorpholin-4-yl)-piperidine-1-carbonyl]-4-phenyl-piperidine-4-carboxylic acid [(S)-1-(4-fluoro-phenyl)-ethyl]-amide]",6 nM
15,"C[C@H](NC(=O)C1(c2ccccc2)CCN(C(=O)N2CCN(c3ccc(F)cc3)CC2)CC1)c1ccc(F)cc1 [Example 203, 1-[4-(4-Fluoro-phenyl)-piperazine-1-carbonyl]-4-phenyl-piperidine-4-carboxylic acid [(S)-1-(4-fluoro-phenyl)-ethyl]-amide]",8.7 nM
16,"C[C@H](NC(=O)C1(c2ccccc2)CCN(C(=O)c2ccc(N3CCS(=O)(=O)CC3)cc2)CC1)c1ccc(F)cc1 [Example 78, 1-[4-(1,1-Dioxo-1λ6-thiomor-pholin-4-yl)-benzoyl]-4-phenyl-piperidine-4-carboxylic acid [(S)-1-(4-fluoro-phenyl)-ethyl]-amide]",11.8 nM
17,"Cc1noc(-c2ccc(C(=O)N3CCC(C(=O)N[C@@H](C)c4ccc(C(F)(F)F)cc4)(c4ccccc4)CC3)cc2)n1 [Example 114, 1-[4-(3-Methyl-[1,2,4]oxadiazol-5-yl)-benzoyl]-4-phenyl-piperidine-4-carboxylic acid [(S)-1-(4-trifluoromethyl-phenyl)-ethyl]-amide]",90.5 nM
18,"O=C(c1ccc(-c2ccc(F)cc2)cc1)N1CCC(C(=O)NC(c2ccc(F)cc2)C(F)(F)F)(c2ccc(F)cc2)CC1 (stereo not drawn) [Example 146, 1-(4′-Fluoro-biphenyl-4-carbonyl)-4-(4-fluoro-phenyl)-piperidine-4-carboxylic acid [2,2,2-trifluoro-1-(4-fluoro-phenyl)-ethyl]-amide]",36 nM
19,"C[C@H](NC(=O)C1(c2ccccc2)CCN(C(=O)N2CCN(c3cccnc3)CC2)CC1)c1ccccc1 [Example 224, 4-Phenyl-1-(4-pyridin-3-yl-piperazine-1-carbonyl)-piperidine-4-carboxylic acid ((S)-1-phenyl-ethyl)-amide]",63.8 nM
20,"C[C@H](NC(=O)C1(c2ccccc2)CCN(C(=O)N2CCC(N3CCSCC3)CC2)CC1)c1ccc(F)cc1 [Example 222, 4-Phenyl-1-(4-thiomorpholin-4-yl-piperidine-1-carbonyl)-piperidine-4-carboxylic acid [(S)-1-(4-fluoro-phenyl)-ethyl]-amide]",10 nM
21,"C[C@H](NC(=O)C1(c2ccccc2)CCN(C(=O)c2ccc(-n3cncn3)cc2)CC1)c1ccccc1 [Example 34, 4-Phenyl-1-(4-[1,2,4]triazo 1-1-yl-benzoyl)-piperidine-4-carboxylic acid ((S)-1-phenyl-ethyl)-amide]",98.5 nM
22,"C[C@H](NC(=O)C1(c2ccccc2)CCN(C(=O)N2CCN(c3cc(C#N)ccn3)CC2)CC1)c1ccccc1 [Example 225, 1-[4-(4-Cyano-pyridin-2-yl)-piperazine-1-carbonyl]-4-phenyl-piperidine-4-carboxylic acid ((S)-1-phenyl-ethyl)-amide]",50.6 nM
23,"C[C@H](NC(=O)C1(c2ccccc2)CCN(C(=O)N2CCN(c3ccc(F)cc3)CC2)CC1)c1ccccc1 [Example 213, 1-[4-(4-Fluoro-phenyl)-piperazine-1-carbonyl]-4-phenyl-piperidine-4-carboxylic acid ((S)-1-phenyl-ethyl)-amide]",8.8 nM
24,"C[C@H](NC(=O)C1(c2ccccc2)CCN(C(=O)N2CCC(N3CCSCC3)CC2)CC1)c1ccccc1 [Example 218, 4-Phenyl-1-(4-thiomorpholin-4-yl-piperidine-1-carbonyl)-piperidine-4-carboxylic acid ((S)-1-phenyl-ethyl)-amide]",5.2 nM
25,"CC(C)C(NC(=O)C1(c2ccc(F)cc2)CCN(C(=O)c2ccc(-c3ccc(F)cc3)cc2)CC1)c1ccccc1 (stereo not drawn) [Example 143, 1-(4′-Fluoro-biphenyl-4-carbonyl)-4-(4-fluoro-phenyl)-piperidine-4-carboxylic acid (2-methyl-1-phenyl-propyl)-amide]",6.9 nM
26,"C[C@H](NC(=O)C1(c2ccccc2)CCN(C(=O)c2ccc(-c3ccc(Cl)c(Cl)c3)cc2)CC1)c1ccccc1 [Example 4, 1-(3′,4′-Dichloro-biphenyl-4-carbonyl)-4-phenyl-piperidine-4-carboxylic acid ((S)-1-phenyl-ethyl)-amide]",19.6 nM
27,"C[C@H](NC(=O)C1(c2ccccc2)CCN(C(=O)c2ccc(-c3ccncc3)cc2)CC1)c1ccccc1 [Example 7, 4-Phenyl-1-(4-pyndin-4-yl-benzoyl)-piperidine-4-carboxylic acid ((S)-1-phenyl-ethyl)-amide]",39.6 nM
